This note sets out measurements from ChEMBL document CHEMBL1275310, “Synthesis and screening of some novel fused thiophene and thienopyrimidine derivatives for anti-avian influenza virus (H5N1) activity” (2010).

Common to all, as to type: functional
The subject of assay [1] is Influenza A virus. The experiment in a line: Antiviral activity against Influenza A virus (A/chicken/Egypt/1/2006 (H5N1)) infected in MDCK cells assessed as virus-induced cytopathogenicity at 40 ug after 3 to 4 days by plaque reduction assay. In general terms: Cytopathic effects are the visible damage that an infection or toxin causes in cultured cells.
Assay [2] relates to Influenza A virus. The experiment in a line: Antiviral activity against Influenza A virus (A/chicken/Egypt/1/2006 (H5N1)) infected in MDCK cells assessed as virus-induced cytopathogenicity at 5 ug after 3 to 4 days by plaque reduction assay.
Assay [3] concerns Influenza A virus. The experiment in a line: Antiviral activity against Influenza A virus (A/chicken/Egypt/1/2006 (H5N1)) infected in MDCK cells assessed as virus-induced cytopathogenicity at 10 ug after 3 to 4 days by plaque reduction assay.
Assay [4] concerns Influenza A virus. The experiment in a line: Antiviral activity against Influenza A virus (A/chicken/Egypt/1/2006 (H5N1)) infected in MDCK cells assessed as virus-induced cytopathogenicity at 20 ug after 3 to 4 days by plaque reduction assay.

Regarding `NC(=O)c1c(N)sc2c1-c1ccccc1CC2`, in the assay with Influenza A virus [1], the “inhibition (INH)” value is recorded as 89%.

As to `O=c1[nH]c(=S)[nH]c2sc3c(c12)-c1ccccc1CC3`, the “inhibition (INH)” value with Influenza A virus [1] worked out at 65%.

Take `O=c1[nH]c(=O)c2c3c(sc2[nH]1)CCc1ccccc1-3`: the “inhibition (INH)” value with Influenza A virus [2] worked out at 92%; with Influenza A virus [3] it was 94%; with Influenza A virus [4], 95%; in the assay with Influenza A virus [1], 98%.
